Experimental data: ChEMBL document CHEMBL3243984, “Methotrexate analogues. 11. Unambiguous chemical synthesis and in vitro biological evaluation of alpha- and gamma-monoesters as potential prodrugs” (J Med Chem, 1978)

Experiments:
CCRF-CEM = assay: Growth inhibition of human CCRF-CEM cells; format: functional
[1] = biological target: T1, Dihydrofolate reductase (Oryctolagus cuniculus) (UniProt C1JLF0); assay: Inhibition of rabbit liver dihydrofolate reductase using [3H]-folic acid after 10 mins by scintillation counting
T1 sequence (whole entry): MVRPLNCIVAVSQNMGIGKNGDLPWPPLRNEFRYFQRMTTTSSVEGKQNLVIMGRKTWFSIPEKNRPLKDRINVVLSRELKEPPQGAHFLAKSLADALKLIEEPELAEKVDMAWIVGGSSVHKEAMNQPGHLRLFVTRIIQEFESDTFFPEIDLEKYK

Serum [2] = assay: Retention time in human serum at 150 mg after 72 hrs by HPLC analysis; format: ADME, cell-free
[3] = Drug metabolism in human serum assessed as parent compound level at 0.006 g after 6 hrs by TLC analysis; format: ADME, cell-free; conditions: read-out: Drug metabolism
Serum [4] = assay: Drug metabolism in rat serum assessed as DBMTX level at 0.006 g after 48 hrs by TLC analysis; format: ADME, cell-free
Serum [5] = assay: Drug metabolism in rat serum assessed as MBMTX level at 0.006 g after 24 hrs by TLC analysis; format: ADME, cell-free
Serum [6] = assay: Drug metabolism in rat serum assessed as DBMTX level at 0.006 g after 24 hrs by TLC analysis; format: ADME, cell-free
Serum [7] = assay: Drug metabolism in rat serum assessed as parent compound level at 0.006 g after 2 hrs by TLC analysis; format: ADME, cell-free
Serum [8] = assay: Drug metabolism in rat serum assessed as MBMTX level at 0.006 g after 48 hrs by TLC analysis; format: ADME, cell-free
Serum [9] = assay: Drug metabolism in mouse serum assessed as parent compound level at 0.006 g after 6 hrs by TLC analysis; format: ADME, cell-free
Serum [10] = assay: Drug metabolism in human serum assessed as MTX alpha-monobutyl ester level at 150 mg after 72 hrs by HPLC analysis; format: ADME, cell-free
Serum [11] = assay: Drug metabolism in mouse serum assessed as parent compound level at 0.006 g after 2 hrs by TLC analysis; format: ADME, cell-free
[12] = Drug metabolism in human serum assessed as parent compound level at 0.006 g after 48 hrs by TLC analysis; format: ADME, cell-free; conditions: read-out: Drug metabolism
[13] = Drug metabolism in monkey serum assessed as parent compound level at 0.006 g after 6 hrs by TLC analysis; format: ADME, cell-free, Macaca mulatta; conditions: rhesus monkey, read-out: Drug metabolism
Serum [14] = assay: Drug metabolism in rat serum assessed as parent compound level at 0.006 g after 6 hrs by TLC analysis; format: ADME, cell-free
[15] = Drug metabolism in monkey serum assessed as parent compound level at 0.006 g after 2 hrs by TLC analysis; format: ADME, cell-free, Macaca mulatta; conditions: rhesus monkey, read-out: Drug metabolism
Serum [16] = assay: Drug metabolism in rat serum assessed as parent compound level at 0.006 g after 24 hrs by TLC analysis; format: ADME, cell-free
[17] = Drug metabolism in human serum assessed as parent compound level at 0.006 g after 2 hrs by TLC analysis; format: ADME, cell-free; conditions: read-out: Drug metabolism
[18] = Drug metabolism in mouse serum assessed as parent compound level at 0.006 g after 24 hrs by TLC analysis; format: ADME, cell-free; conditions: read-out: Drug metabolism
[19] = Drug metabolism in monkey serum assessed as parent compound level at 0.006 g after 48 hrs by TLC analysis; format: ADME, cell-free, Macaca mulatta; conditions: rhesus monkey, read-out: Drug metabolism
[20] = Drug metabolism in mouse serum assessed as parent compound level at 0.006 g after 48 hrs by TLC analysis; format: ADME, cell-free; conditions: read-out: Drug metabolism
Serum [21] = assay: Drug metabolism in human serum assessed as MTX gamma-monobutyl ester level at 150 mg after 72 hrs by HPLC analysis; format: ADME, cell-free
Serum [22] = assay: Drug metabolism in rat serum assessed as MBMTX level at 0.006 g after 6 hrs by TLC analysis; format: ADME, cell-free
Serum [23] = assay: Drug metabolism in rat serum assessed as parent compound level at 0.006 g after 48 hrs by TLC analysis; format: ADME, cell-free
[24] = Drug metabolism in human serum assessed as parent compound level at 0.006 g after 24 hrs by TLC analysis; format: ADME, cell-free; conditions: read-out: Drug metabolism
[25] = Drug metabolism in monkey serum assessed as parent compound level at 0.006 g after 24 hrs by TLC analysis; format: ADME, cell-free, Macaca mulatta; conditions: rhesus monkey, read-out: Drug metabolism
Serum [26] = assay: Drug metabolism in rat serum assessed as MBMTX level at 0.006 g after 2 hrs by TLC analysis; format: ADME, cell-free
Serum [27] = assay: Drug metabolism in rat serum assessed as DBMTX level at 0.006 g after 6 hrs by TLC analysis; format: ADME, cell-free
Serum [28] = assay: Drug metabolism in rat serum assessed as DBMTX level at 0.006 g after 2 hrs by TLC analysis; format: ADME, cell-free

CCOC(=O)[C@H](CCC(=O)O)NC(=O)c1ccc(N(C)Cc2cnc3nc(N)nc(N)c3n2)cc1
ID50 (CCRF-CEM): 6.2 ×10⁻⁶ mol/L

CCCCOC(=O)CC[C@H](NC(=O)c1ccc(N(C)Cc2cnc3nc(N)nc(N)c3n2)cc1)C(=O)O
ID50 [1]: 1.7 ×10⁻⁸ mol/L | ID50 (CCRF-CEM): 0.76 ×10⁻⁶ mol/L | Retention_time (Serum [2]): 3.2 min

CN(Cc1cnc2nc(N)nc(N)c2n1)c1ccc(C(=O)N[C@@H](CCC(=O)O)C(=O)O)cc1 [METHOTREXATE]
ID50 [1]: 9 ×10⁻⁹ mol/L | ID50 (CCRF-CEM): 0.006 ×10⁻⁶ mol/L | Retention_time (Serum [2]): 2 min

CCCCOC(=O)[C@H](CCC(=O)O)NC(=O)c1ccc(N(C)Cc2cnc3nc(N)nc(N)c3n2)cc1
ID50 [1]: 1.7 ×10⁻⁸ mol/L | ID50 (CCRF-CEM): 2 ×10⁻⁶ mol/L | Retention_time (Serum [2]): 5.1 min

CCOC(=O)CC[C@H](NC(=O)c1ccc(N(C)Cc2cnc3nc(N)nc(N)c3n2)cc1)C(=O)O
ID50 (CCRF-CEM): 0.58 ×10⁻⁶ mol/L

CCCCOC(=O)CC[C@H](NC(=O)c1ccc(N(C)Cc2cnc3nc(N)nc(N)c3n2)cc1)C(=O)OCCCC
remaining at 6 h [3]: < 1% | Drug metabolism (Serum [4]): metabolite_detected | Drug metabolism (Serum [5]): metabolite_detected | ID50 [1]: 1.4 ×10⁻⁷ mol/L | Drug metabolism (Serum [6]): metabolite_detected | Drug metabolism (Serum [7]): metabolite_detected | Drug metabolism (Serum [8]): metabolite_detected | Drug metabolism (Serum [9]): 46% | Drug metabolism (Serum [10]): metabolite_detected | Drug metabolism (Serum [11]): 43% | ID50 (CCRF-CEM): 0.057 ×10⁻⁶ mol/L | remaining at 48 h [12]: < 1% | remaining at 6 h [13]: < 1% | Drug metabolism (Serum [14]): metabolite_detected | remaining at 2 h [15]: < 1% | Drug metabolism (Serum [16]): metabolite_detected | remaining at 2 h [17]: < 1% | remaining at 24 h [18]: 89% | remaining at 48 h [19]: 2% | remaining at 48 h [20]: 93% | Drug metabolism (Serum [21]): metabolite_detected | Drug metabolism (Serum [22]): metabolite_detected | Drug metabolism (Serum [23]): metabolite_detected | remaining at 24 h [24]: 1% | remaining at 24 h [25]: < 1% | Drug metabolism (Serum [26]): metabolite_detected | Drug metabolism (Serum [27]): metabolite_detected | Drug metabolism (Serum [28]): metabolite_detected

COC(=O)CC[C@H](NC(=O)c1ccc(N(C)Cc2cnc3nc(N)nc(N)c3n2)cc1)C(=O)O
ID50 (CCRF-CEM): 0.43 ×10⁻⁶ mol/L

COC(=O)CC[C@H](NC(=O)c1ccc(N(C)Cc2cnc3nc(N)nc(N)c3n2)cc1)C(=O)OC
ID50 (CCRF-CEM): 0.4 ×10⁻⁶ mol/L

CCOC(=O)CC[C@H](NC(=O)c1ccc(N(C)Cc2cnc3nc(N)nc(N)c3n2)cc1)C(=O)OCC
ID50 (CCRF-CEM): 0.012 ×10⁻⁶ mol/L
